These are literature values, as cited in patent US20240041034A1, “ANTIMICROBIAL COMPOSITION COMPRISING A DIOCTYLDIMETHYLAMMONIUM COMPOUND” (The Procter & Gamble Company, priority 2022, published 2024).

The conditions of this series: in water, in the absence of surfactant.

The structures appear in SMILES notation.

Turning to `CCCCCCCC[N+](C)(C)CCCCCCCC.[Cl-]` [DODMAC, dioctyldimethylammonium chloride], the “Critical Micelle Concentration (CMC)” value is recorded as roughly 5000 ppm.
